According to ChEMBL document CHEMBL5608197, “Optimization of pyrazolopyridine 4-carboxamides with potent antimalarial activity for which resistance is associated with the P. falciparum transporter ABCI3” (Eur J Med Chem, 2024):

Tests used:
Plasmodium falciparum = experiment: Antiplasmodial activity against asexual blood stage of Plasmodium falciparum 3D7 assessed as inhibition of parasite growth incubated for 72 hrs by LDH assay; format: functional, organism-based; conditions: 3D7, 72 h
[1] = Cytotoxicity against human HepG2 cells assessed as inhibition of cell growth incubated for 48 hrs by CellTiter-Glo luminescence assay; format: toxicity, cell-based

Row | SMILES | EC50 (Plasmodium falciparum) | CC50 at 48 h [1]
1 | CCc1nn(C(C)(C)C)c2nc(C3CC3)cc(C(=O)N3CCOc4ccccc43)c12 | 0.288 µM | > 10 µM
2 | Cc1nn(C(C)C)c2nc(C(C)C)cc(C(=O)Nc3nnc4ccccn34)c12 | 0.86 µM | –
3 | CC(C)(C)n1nc(Br)c2c(C(=O)N3CCOc4ccccc43)cc(C3CC3)nc21 | 0.155 µM | > 40 µM
4 | Cc1nn(C)c2nc(C3CC3)cc(C(=O)N3CCOc4ccccc43)c12 | > 10 µM | –
5 | Cc1nn(C(C)(C)C)c2nc(C3CC3)cc(C(=O)Nc3ccccc3)c12 | 3.85 µM | > 10 µM
6 | Cc1nn(C(C)(C)C)c2nc(C3CC3)cc(C(=O)N3CCN(C)CC3)c12 | 0.545 µM | > 40 µM
7 | Cc1nn(C(C)(C)C)c2nc(C3CC3)cc(C(=O)N3CCCCC3)c12 | 0.635 µM | > 40 µM
8 | CC(C)(C)n1nc(C2CC2)c2c(C(=O)N3CCOc4ccccc43)cc(C3CC3)nc21 | 0.079 µM | > 10 µM
9 | Cc1nn(C(C)(C)C)c2nc(C3CC3)cc(C(=O)N3CCOc4cccnc43)c12 | 0.856 µM | > 10 µM
10 | CC(C)c1nn(C(C)(C)C)c2nc(C3CC3)cc(C(=O)N3CCOc4ccccc43)c12 | 0.58 µM | > 40 µM
11 | Cc1nn(C(C)(C)C)c2nc(C3CC3)cc(C(=O)N3CCOCC3)c12 | 2.33 µM | > 40 µM
12 | Cc1cc(C)c(NC(=O)c2cc(C3CC3)nc3c2c(C)nn3C(C)(C)C)c(Cl)c1 | 1.13 µM | > 40 µM
13 | Cc1n[nH]c2nc(C3CC3)cc(C(=O)N3CCOc4ccccc43)c12 | > 10 µM | –
14 | CC(C)(C)n1ncc2c(C(=O)N3CCOc4ccccc43)cc(C3CC3)nc21 | 0.49 µM | > 40 µM
15 | Cc1nn(-c2ccccc2)c2nc(C3CC3)cc(C(=O)N3CCOc4ccccc43)c12 | 1.12 µM | > 40 µM
16 | Cc1nn(C(C)(C)C)c2nc(C3CC3)cc(C(=O)N3CCOc4ncccc43)c12 | 2.5 µM | > 10 µM

Row | SMILES | EC50 (Plasmodium falciparum) | CC50 at 48 h [1]
17 | Cc1cc(C(=O)N2CCOc3ccccc32)c2c(C)nn(C(C)(C)C)c2n1 | 5.63 µM | > 40 µM
18 | Cc1nn(C(C)(C)C)c2nc(C(C)C)cc(C(=O)N3CCOc4ccccc43)c12 | 0.74 µM | > 40 µM
19 | COc1cc(C(=O)N2CCOc3ccccc32)c2c(C)nn(C(C)(C)C)c2n1 | 1.04 µM | > 40 µM
20 | CC(C)(C)n1nc(-c2ccccc2)c2c(C(=O)N3CCOc4ccccc43)cc(C3CC3)nc21 | 2.18 µM | > 40 µM
21 | CCc1cc(C(=O)N2CCOc3ccccc32)c2c(C)nn(C(C)(C)C)c2n1 | 0.843 µM | > 40 µM
22 | CC1CN(C(=O)c2cc(-c3ccccc3)nc3c2cnn3C(C)C)CCO1 (configuration not stated) | 1 µM | > 40 µM
23 | COc1ccccc1CNC(=O)c1cc(C2CC2)nc2c1c(C)nn2C(C)(C)C | 0.463 µM | > 40 µM
24 | Cc1nn(C(C)(C)C)c2nc(-c3ccccc3)cc(C(=O)N3CCOc4ccccc43)c12 | 0.453 µM | > 40 µM
25 | COc1ccccc1N(C)C(=O)c1cc(C2CC2)nc2c1c(C)nn2C(C)(C)C | 2.36 µM | > 10 µM
26 | COc1ccccc1CNC(=O)c1cc(C2CC2)nc2c1cnn2C(C)C | 0.68 µM | > 40 µM
27 | Cc1cc(C)c(NC(=O)c2cc(C)nc3c2c(C)nn3C)c(Cl)c1 | 0.17 µM | > 40 µM
28 | Cc1nn(C(C)(C)C)c2nc(C3CC3)cc(C(=O)Nc3nnc4ccccn34)c12 | > 10 µM | –
29 | Cc1nn(C(C)(C)C)c2nc(C3CC3)cc(C(=O)N3CCOc4cnccc43)c12 | 2.07 µM | –
30 | COc1ccccc1NC(=O)c1cc(C2CC2)nc2c1c(C)nn2C(C)(C)C | 2.3 µM | > 40 µM
31 | Cc1nn(C(C)(C)C)c2nc(C3CC3)cc(C(=O)N3CCc4ccccc43)c12 | 2.48 µM | > 40 µM
